This is an account of results in patent publication US11452764B2, “Inhibiting FAK-AKT interaction to inhibit metastasis” (Board of Trustees of Michigan State University, priority 2017, dated 2022).

For experiment [1], the system named is FAK-Tyr-397 phosphorylation. The experiment is described as follows: FAK-Y397 western blotting in suspended SW620 cells at ambient or 15 mmHg increased pressure (ZINC compounds). It counts as cell-based, human. The settings on record: 50 μM. The source says: (§1) Extracellular pressure was increased by 15 mmHg over ambient pressure using a temperature and pressure-controlled box as described by Basson et al. (J Cell Biochem, 78: 47-61 (2000)).
Cells were maintained at ambient or increased pressure in bacteriologic plastic dishes pacificated with heat-inactivated bovine serum albumin to prevent adhesion and avoid adhesion-associated background FAK activation. Cells were lysed in lysis buffer, resolved by 10% SDS-PAGE, transferred to nitrocellulose and blotted with antibody to Tyr-397-phosphorylated FAK (rabbit monoclonal ab81298, Abcam, San Francisco, Calif., USA) and anti-rabbit 680 (LI-COR Inc. Lincoln, Nebr., USA), before quantitation using Kodak Scientific Imaging Systems 1D, V.3.5.4 (Zeng et al., Oncotarget, 8 98051-98067 (2017)). Total FAK (Anti-FAK, clone 4.47 Merck, Darmstadt, Germany with secondary anti-mouse 800, LI-COR Inc. Lincoln, Nebr., USA) served as a loading control. FAK and Tyr-397-phosphorylated FAK western blots yielded doublets similar to those previously observed by others (McConnell et al. Mol Cancer 10: 75 (2011); Aflaki et al. Cell Mol Life Sci, 68: 3933-3947 (2011)); Das et al. Cancer Res, 72: 6217-6226 (2012); Ammoun et al. Oncogene, 31: 1710-1722 (2012)). Both bands were quantitated together.
Four structurally similar molecules to the FAK-derived sequence LAHPP (SEQ ID NO:25) (Table 2) were evaluated for their ability to prevent FAK activation by 15 mmHg increased extracellular pressure in human SW620 colon cancer cells. […] The structures of these compounds are shown below (and in FIG. 17).
On the technique in general: In western blotting, separated proteins are transferred to a membrane and probed.

Another experiment has as its system SW620 colon cancer cells. The experiment is described as follows: Adhesion assay of SW620 cells to collagen I at ambient or 15 mmHg increased pressure (ZINC compounds). It counts as cell-based, human. The settings on record: 30 minutes; for Concentration at which pressure stimulated adhesion was blocked / Pressure stimulated adhesion: 15 mmHg; for Pressure stimulated adhesion / Basal adhesion: concentrations studied 10-200 μM (per compound in Table 3); for Basal adhesion: ambient pressure. As to the method:
as §1
Cells were seeded in an amount of 50,000 cells/well into 24 well plates precoated with collagen I (Sigma, St. Louis, Mo., USA) at 37° C. under ambient or 15 mmHg increased pressure as described by Basson et al. J Cell Biochem 78: 47-61 (2000)). After 30 minutes, non-adherent cells were washed away. Adherent cells were stained with MTS (CellTiter 96® AQueous One Solution Cell Proliferation Assay, Madison, Wis., USA) and plates were read at 490 nm.
Seven molecules were studied that structurally mimic AAHPSEE (SEQ ID NO:24), including five analogs of ZINC04085549 (FIG. 16A-16G). These molecules' effects on basal and pressure-stimulated human SW620 colon cancer cell adhesion to collagen I were assayed first. Most molecules had no effect at the concentrations studied (Table 3).

The target in another experiment is Akt1 (Homo sapiens, UniProt P31749). The settings on record: Zeng et al., Oncotarget 2017; cited from earlier work.

Entries after “also recorded” stand apart in the source; their conditions may differ.

Sequence of Akt1 (P31749 whole entry, species assumed): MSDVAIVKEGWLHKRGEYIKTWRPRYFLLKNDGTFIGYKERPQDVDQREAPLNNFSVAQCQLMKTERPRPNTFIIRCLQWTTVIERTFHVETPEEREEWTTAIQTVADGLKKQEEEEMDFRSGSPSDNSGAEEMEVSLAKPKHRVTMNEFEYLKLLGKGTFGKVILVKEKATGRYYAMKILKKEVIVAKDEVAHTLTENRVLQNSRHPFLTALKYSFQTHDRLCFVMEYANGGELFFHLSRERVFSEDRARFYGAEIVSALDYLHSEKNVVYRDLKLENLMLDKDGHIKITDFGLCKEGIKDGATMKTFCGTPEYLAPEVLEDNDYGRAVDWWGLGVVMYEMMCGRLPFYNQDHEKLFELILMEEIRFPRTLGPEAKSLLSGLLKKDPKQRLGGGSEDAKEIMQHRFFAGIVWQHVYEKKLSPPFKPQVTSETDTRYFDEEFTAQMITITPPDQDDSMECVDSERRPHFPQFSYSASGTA

Take `Cc1ccccc1C(=O)O/N=C1\CCCCC1c1ccc([N+](=O)[O-])cc1[N+](=O)[O-]` (stereo not drawn) [ZINC04085549]: in experiment [1] (suspended SW620), the “Basal ambient pressure FAK-Tyr-397 phosphorylation” value was “without affecting basal ambient pressure FAK-Tyr-397 phosphorylation”. Further, in experiment [1] (suspended SW620, 15 mmHg), the “Pressure-stimulated FAK-Tyr-397 phosphorylation” value is given as “prevented pressure-stimulated FAK-Tyr-397 phosphorylation”. In the experiment with SW620 colon cancer cells, the “Concentration at which pressure stimulated adhesion was blocked” value is not below 50 µM, the Pressure stimulated adhesion result is “prevented pressure-stimulated increases in SW620 adhesion; also recorded: Blocked” and the Basal adhesion entry is given as “without altering basal adhesiveness at ambient pressure; also recorded: Maintained”.
As to “AAHPSEE [two-site mutant of FAK residues 113-119, more helical analog used as screening query]”, the “Competition with FAK for binding to AKT1” value with Akt1 is given as “effectively compete with FAK for binding to AKT1”.
Turning to `COc1ccc(C(=O)O/N=C2\CCCCC2c2ccc([N+](=O)[O-])cc2[N+](=O)[O-])cc1` (stereo not drawn) [ZINC4085554], in the experiment with SW620 colon cancer cells, the “Concentration at which pressure stimulated adhesion was blocked” value is not below 50 µM, the Pressure stimulated adhesion result is reported as “prevented pressure-stimulated increases in SW620 adhesion; also recorded: Blocked” and the Basal adhesion entry is “without altering basal adhesiveness at ambient pressure; also recorded: Maintained”.
